Experimental data as given in PMC4022860, “Fragments of Bacterial Endoglycosidase S and Immunoglobulin G Reveal Subdomains of Each That Contribute to Deglycosylation” (The Journal of Biological Chemistry, 2014).

Molecular target: T1, EndoS CBM (carbohydrate binding module of endoglycosidase S) (Streptococcus pyogenes, UniProt Q99Y92)
T1 construct: isolated CBM domain, residues 761-924, C-terminal hexahistidine tag (pET303), 15N-labelled, expressed in E. coli BL21(DE3)
Assay: 1H, […] HSQC NMR titration
Conditions: 0.15 mM 15N-CBM; 62.5 mM to 2 M ligand; 10 mM BisTris, pH 6.5, 15 mM NaCl, 37 °C

T1 sequence (Q99Y92 761-924): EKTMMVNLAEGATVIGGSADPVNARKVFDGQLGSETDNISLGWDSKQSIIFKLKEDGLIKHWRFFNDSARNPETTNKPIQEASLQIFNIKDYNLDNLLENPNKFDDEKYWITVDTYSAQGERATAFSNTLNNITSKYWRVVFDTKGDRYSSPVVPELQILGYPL

For `OC[C@H]1OC(O)[C@H](O)[C@@H](O)[C@H]1O` (stereo partly drawn) [D-galactose], the “1H,15N HSQC NMR titration” value was “four distinct peaks appeared upon D-galactose titration, which were visible from the lowest titration point”.
